Reference: patent publication US7906486B2, “Method of treating or preventing tissue deterioration, injury or damage due to disease of mucosa” (SciClone Pharmaceuticals, Inc., priority 2007, dated 2011)
Values joined by “and” are separate entries in the source; they are usually repeats but may differ in a detail not shown here. Equal values may be shown once.

How the values were obtained:
[1] = Weights and survival (Example 1, SCI-01); format: in vivo, Syrian Golden Hamsters
Experimental: All animals were weighed daily and their survival recorded, in order to assess possible differences in animal weight among treatment groups as an indication for mucositis severity and/or possible toxicity resulting from the treatments.
The mean daily percent weight change data was evaluated. The saline (PBS) treated control hamsters gained an average of 70.4% of their starting weight during the study. Hamsters in the group receiving SCV-07 at 1 ug/kg on days −1 to 16 gained an average of 68.4% of their starting weight during the study. Hamsters in the group receiving SCV-07 at 10 ug/kg on days −1 to 16 gained an average of 70.3% of their starting weight during the study. Hamsters in the group receiving SCV-07 at 100 ug/kg on days −1 to 16 gained an average of 82.0% of their starting weight during the study. The significance of these differences was evaluated by calculating the area-under-the-curve (AUC) for the weight gain of each animal, and then comparing the different treatment groups using a One-Way ANOVA test.

[2] = test system: oral mucositis induced by fractionated radiation (eight doses of 7.5 Gy, left buccal cheek pouch); test: Oral mucositis induced by fractionated radiation in hamsters, mucositis scoring (Example 3, SCI-03); format: in vivo, Syrian Golden Hamsters; design: key: 0: Pouch completely healthy. No erythema or vasodilation.; 1: Light to severe erythema and vasodilation. No erosion of mucosa.; 2: Severe erythema and vasodilation. Erosion of superficial aspects of mucosa leaving denuded areas. Decreased stippling of mucosa.; 3: Formation of off-white ulcers in one or more places. Ulcers may have a yellow/gray due to pseudomembrane. Cumulative size of ulcers should equal about ¼ of the pouch. Severe erythema and vasodilation.; 4: Cumulative seize of ulcers should equal about ½ of the pouch. Loss of pliability. Severe erythema and vasodilation.; 5: Virtually all of pouch is ulcerated. Loss of pliability (pouch can only partially be extracted from mouth)
From the text: The fractionated radiation model in hamsters, developed by the Principal Investigator, has proven to be an accurate, efficient and cost-effective technique to provide a preliminary evaluation of anti-mucositis compounds. In this model, hamsters receive 8 doses of 7.5 Gy to the left cheek pouch on days 0, 1, 2, 3, […], rather than the single dose of 40 Gy on day 0 that is used in acute radiation studies. The rationale for using this scheduling for the radiation is that it more closely resembles the clinical courses of radiotherapy given to cancer patients. The course of mucositis in this model is well defined and results in peak mucositis scores approximately 14-16 days following radiation. Mortality (generally from the side effects of anesthesia) in the fractionated radiation model is slightly higher than that seen in the acute radiation model and group sizes are increased (to 10 per group) to allow for this.
(§1) Forty (40) male Syrian Golden Hamsters were given eight doses of radiation of 7.5 Gy each directed to their left buccal cheek pouch on days 0, 1, 2, 3, 6, 7, 8 and 9. This was accomplished by anesthetizing the animals and everting the left buccal pouch, while protecting the rest of the animal's bodies with a lead shield. Test materials were given by sub-cutaneous injection once daily as detailed in Table 9. Mucositis was evaluated clinically starting on day 7, and continuing on alternate days until day 35. Test articles were given as outlined Table 9, Groups 1 and 2 were dosed from Day −1 to Day 29, Group 3 was dosed on the days of radiation only, Group 4 was dosed on the days between Day −15 and Day 29 on which no radiation is given (Day −1, Day 4, Day 5 and Day 10 to Day 29).
The effect on mucositis of each drug treatment compared to placebo was assessed according to the following parameters:
On each evaluation day, the number of animals with a blinded mucositis score of ≧3 in each drug treatment group was compared to the control group. Differences were compared on a cumulative basis and statistical significance was determined by chi-square analysis. Efficacy, in this analysis, is defined by a significant reduction in the number of days that a group of animals had ulcerations (scores ≧3) when compared to the control group.
For each evaluation day the scores of the control group were compared to those of the treated groups using non-parametric rank sum analysis. Treatment success was considered as a statistically significant lowering of scores in the treated group on 2 or more days from day 6 to day 28.
as §1, with “daily at 8:00 am” for “daily”, “9. […]” for “9. Mucositis was evaluated clinically starting on day 7, and continuing on alternate days until day 35.”, “2 was” for “2 were”, “radiation only (days 0-3 and days 6-10),” for “radiation only,”, “Day −1” for “Day −15”, “Day 4 to” for “Day 4,”
Radiation was generated with a Philips 160 kVp (kilovolt potential) (18.75-ma) X-ray source at a focal distance of 30 cm, with a 3.0 mm hardened Al filtration system. Irradiation was targeted to the left buccal pouch mucosa at a rate of 3.32 Gy/minute. […] Using this calibration, the energy received by each animal at each radiation dose was approximately 64.5 nC (nanoCoulombs) at each time point. Prior to irradiation, animals were anesthetized with an intraperitoneal injection of ketamine (160 mg/kg) and xylazine (8 mg/kg). The left buccal pouch was everted, fixed and isolated using a lead shield.
The mucositis score, weight change and survival were measured throughout the study as described above. […]

[3] = test system: 5-FU-immune-suppressed animals; details: in vivo; cited from earlier work

Question: For `N[C@H](CCC(=O)N[C@@H](Cc1c[nH]c2ccccc12)C(=O)O)C(=O)O` [SCV-07, γ-D-glutamyl-L-tryptophan], which “average weight gain, % of starting weight during the study” value (“average weight gain, %” for short) ([1]; 1 ug/kg on days -1 to 16) is on record?
Answer: Its value is 68.4%.

Question: And the “average weight gain, %” value ([1]; 10 ug/kg on days -1 to 16)?
Answer: The value was 70.3%.

Question: What about the “average weight gain, %” value ([1]; 100 ug/kg on days -1 to 16) of the same compound?
Answer: Its value is 82.0%.

Question: What about the Mucositis score ([2]; Group 2, day 7, individual animals (two score lines each)) of the same compound?
Answer: The Mucositis score was 0.

Question: What about the Mucositis score ([2]; Group 2, day 9, individual animals (two score lines each)) of the same compound?
Answer: Its Mucositis score is 1 (5×) and 0 (2×).

Question: And the Mucositis score ([2]; Group 2, day 11, individual animals (two score lines each))?
Answer: The Mucositis score was 1.

Question: What about the Mucositis score ([2]; Group 2, day 13, individual animals (two score lines each)) of the same compound?
Answer: The Mucositis score was 3.

Question: And the Mucositis score ([2]; Group 2, day 15, individual animals (two score lines each))?
Answer: The Mucositis score was 3.

Question: What about the Mucositis score ([2]; Group 2, day 17, individual animals (two score lines each)) of the same compound?
Answer: The Mucositis score was 3.

Question: And the Mucositis score ([2]; Group 2, day 21, individual animals (two score lines each))?
Answer: Its Mucositis score is 3.

Question: And the Mucositis score ([2]; Group 2, day 23, individual animals (two score lines each))?
Answer: Its Mucositis score is 3.

Question: And the Mucositis score ([2]; Group 2, day 25, individual animals (two score lines each))?
Answer: The Mucositis score was 3.

Question: And the Mucositis score ([2]; Group 2, day 27, individual animals (two score lines each))?
Answer: The Mucositis score was 3.

Question: And the Mucositis score ([2]; Group 2, day 31, individual animals (two score lines each))?
Answer: Its Mucositis score is 0 (2×) and 1 (3×).

Question: What about the Mucositis score ([2]; Group 2, day 33, individual animals (two score lines each)) of the same compound?
Answer: Its Mucositis score is 1.

Question: And the Mucositis score ([2]; Group 2, day 35, individual animals (two score lines each))?
Answer: Its Mucositis score is 1 (3×) and 0 (4×).

Question: What about the “immunostimulatory effect on 5-FU-immune-suppressed animals” value [3] of the same compound?
Answer: Its value is “strong immunostimulatory effect”.
